In this experiment the target is T1, human DGAT2 (Homo sapiens, UniProt Q96PD7).
T1 construct: made in house; host or cells: Sf-9 insect cells (baculovirus), membrane fraction
T1 sequence (Q96PD7 1-388): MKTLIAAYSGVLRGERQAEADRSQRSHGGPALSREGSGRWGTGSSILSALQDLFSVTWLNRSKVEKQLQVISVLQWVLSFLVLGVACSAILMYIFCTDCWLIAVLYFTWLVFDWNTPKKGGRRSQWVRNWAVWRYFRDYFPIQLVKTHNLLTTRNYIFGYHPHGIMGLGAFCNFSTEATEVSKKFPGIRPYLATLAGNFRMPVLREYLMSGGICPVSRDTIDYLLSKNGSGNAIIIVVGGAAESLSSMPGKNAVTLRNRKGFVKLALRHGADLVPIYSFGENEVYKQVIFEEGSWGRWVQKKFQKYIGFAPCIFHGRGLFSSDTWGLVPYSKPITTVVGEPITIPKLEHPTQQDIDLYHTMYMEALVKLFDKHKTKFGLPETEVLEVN
Nature of the experiment: DGAT2 Enzymatic Activity Assay. To be noted: membrane prep of Sf-9 insect cells expressing hDGAT2; 13C18-triolein product by LC/MS/MS; 25 μM diolein, 5 μM 13C oleoyl-CoA. It counts as biochemical. The procedure: Sf-9 insect cells were maintained in Grace's insect cell culture medium with 10% heated-inactivated fetal bovine serum, 1% Pluronic F-68 and 0.14 μg/ml Kanamycine sulfate at 27° C. in a shaker incubator. After infection with untagged baculovirus expressing human DGAT2 (hDGAT2) at multiplicity of infection (MOI) 3 for 48 hours, cells were harvested. Cell pellets were suspended in buffer containing 10 mM Tris-HCl pH 7.5, 1 mM EDTA, 250 mM sucrose and Complete Protease Inhibitor Cocktail (Sigma Aldrich), and sonicated on ice. Cell debris were removed by centrifugation at 2000×g for 15 minutes. Membrane fractions were isolated by ultracentrifugation (100,000×g), resuspended in the same buffer, and frozen (−80° C.) for later use. The protein concentration was determined with the Pierce™ BCA Protein Assay Kit (Thermo Fisher Scientific).
LC/MS/MS analyses were performed using Thermal Fisher's LX4-TSQ Vantage system. This system consists of an Agilent binary high-performance liquid chromatography (HPLC) pump and a TSQ Vantage triple quadrupole MS/MS instrument. For each sample, 2 μL samples from the top organic layer of in-plate liquid-liquid extraction were injected onto a Thermo Betabasic C4 column (2.1 mm×20 mm, 5 μm particle size). The samples were then eluted using the following conditions; mobile phase: Isopropanol:acetonitrile/10 mM ammonium formate=50/35/15 (v/v/v), flow rate: 0.8 mL/min, temperature: 25° C. Data was acquired in positive mode using a heated electrospray ionization (HESI) interface. […] The peak area was integrated by Xcalibur Quan software. The ratio between the ^13C18triolein generated in the reaction and spiked in internal standard ^13C21-triolein was used to generate percentage inhibition and IC50 values. Compound percentage inhibition was calculated by the following formula: Inhibition %=1−[(compound response−low control)/(high control−low control)]×100%.
DGAT2 activity was determined by measuring the amount of enzymatic product ^13C18-triolein (^13C-1,2,3-Tri(cis-9-octadecenoyl)glycerol) using the membrane prep mentioned above. The assay was carried out in ABgene 384-well assay plates in a final volume of 25 μL at rt.

For `C[C@@]1(NC(=O)c2nn3ccc(Oc4ncc(F)cc4OCC(F)(F)F)cc3c2F)CCS(=O)(=O)C1` [Example 29, (R)-3-Fluoro-5-((5-fluoro-3-(2,2,2-trifluoroethoxy)pyridin-2-yl)oxy)-N-(3-methyl-1,1-dioxidotetrahydrothiophen-3-yl)pyrazolo[1,5-a]pyridine-2-carboxamide], the IC50 was 277 nM. The compound `CC1(NC(=O)c2nn3ccc(Oc4nccnc4OCC(F)F)cc3c2Cl)CS(=O)(=O)C1` [Example 30, 3-Chloro-5-((3-(2,2-difluoroethoxy)pyrazin-2-yl)oxy)-N-(3-methyl-1,1-dioxidothietan-3-yl)pyrazolo[1,5-a]pyridine-2-carboxamide] registered an IC50 of 78 nM. For the compound `CC1(NC(=O)c2nn3ccc(Oc4nccnc4OCC(F)F)cc3c2F)CS(=O)(=O)C1` [Example 31, 5-((3-(2,2-Difluoroethoxy)pyrazin-2-yl)oxy)-3-fluoro-N-(3-methyl-1,1-dioxidothietan-3-yl)pyrazolo[1,5-a]pyridine-2-carboxamide], the half-maximal inhibitory concentration (IC50) turned out to be 194 nM.

With `CC1(NC(=O)c2nn3ccc(Oc4nccnc4OCC(F)F)cc3c2F)CCS(=O)(=O)CC1` [Example 32, 5-((3-(2,2-Difluoroethoxy)pyrazin-2-yl)oxy)-3-fluoro-N-(4-methyl-1,1-dioxidotetrahydro-2H-thiopyran-4-yl)pyrazolo[1,5-a]pyridine-2-carboxamide], the IC50 was found to be 10 nM. With `CC1(NC(=O)c2nn3ccc(Oc4ncc(F)cc4OCC(F)(F)F)c(Cl)c3c2Cl)CCS(=O)(=O)CC1` [Example 33, 3,4-Dichloro-5-((5-fluoro-3-(2,2,2-trifluoroethoxy)pyridin-2-yl)oxy)-N-(4-methyl-1,1-dioxidotetrahydro-2H-thiopyran-4-yl)pyrazolo[1,5-a]pyridine-2-carboxamide] the figure was 8.8 nM; with `CC1(NC(=O)c2nn3ccc(Oc4ncc(F)cc4OCC(F)(F)F)cc3c2Cl)CCS(=O)(=O)CC1` [Example 34, 3-Chloro-5-((5-fluoro-3-(2,2,2-trifluoroethoxy)pyridin-2-yl)oxy)-N-(4-methyl-1,1-dioxidotetrahydro-2H-thiopyran-4-yl)pyrazolo[1,5-a]pyridine-2-carboxamide], 7.3 nM.

As to `CC1(NC(=O)c2nn3ccc(Oc4nccnc4OCC(F)(F)F)cc3c2Cl)CCS(=O)(=O)CC1` [Example 35, 3-Chloro-N-(4-methyl-1,1-dioxidotetrahydro-2H-thiopyran-4-yl)-5-((3-(2,2,2-trifluoroethoxy)pyrazin-2-yl)oxy)pyrazolo[1,5-a]pyridine-2-carboxamide], half-maximal inhibition (IC50) was put at 18 nM. As for `CC1(NC(=O)c2nn3ccc(Oc4ncc(F)cc4OCC(F)(F)F)cc3c2F)CCS(=O)(=O)CC1` [Example 36, 3-Fluoro-5-((5-fluoro-3-(2,2,2-trifluoroethoxy)pyridin-2-yl)oxy)-N-(4-methyl-1,1-dioxidotetrahydro-2H-thiopyran-4-yl)pyrazolo[1,5-a]pyridine-2-carboxamide], 7.3 nM corresponded to half-maximal inhibition (IC50). The compound `CC1(NC(=O)c2nn3ccc(Oc4ncc(Cl)cc4OCC(F)(F)F)cc3c2F)CS(=O)(=O)C1` [Example 37, 5-((5-Chloro-3-(2,2,2-trifluoroethoxy)pyridin-2-yl)oxy)-3-fluoro-N-(3-methyl-1,1-dioxidothietan-3-yl)pyrazolo[1,5-a]pyridine-2-carboxamide] registered an IC50 of 7.7 nM. For `CC1(NC(=O)c2nn3ccc(Oc4ncc(C#N)cc4OCC(F)(F)F)cc3c2Cl)CCS(=O)(=O)CC1` [Example 41, 3-Chloro-5-((5-cyano-3-(2,2,2-trifluoroethoxy)pyridin-2-yl)oxy)-N-(4-methyl-1,1-dioxidotetrahydro-2H-thiopyran-4-yl)pyrazolo[1,5-a]pyridine-2-carboxamide], the IC50 was determined as 5 nM.

In the case of `CC1(NC(=O)c2cc3cc(Oc4ncc(C#N)cc4OCC(F)(F)F)ccn3n2)CCS(=O)(=O)CC1` [Example 42, 5-((5-Cyano-3-(2,2,2-trifluoroethoxy)pyridin-2-yl)oxy)-N-(4-methyl-1,1-dioxidotetrahydro-2H-thiopyran-4-yl)pyrazolo[1,5-a]pyridine-2-carboxamide], the IC50 came to 20 nM.

Take `CCc1c(C(=O)NC2(C)CCS(=O)(=O)CC2)nn2ccc(Oc3ncccc3OCC(F)(F)F)cc12` [Example 46, 3-Ethyl-N-(4-methyl-1,1-dioxidotetrahydro-2H-thiopyran-4-yl)-5-((3-(2,2,2-trifluoroethoxy)pyridin-2-yl)oxy)pyrazolo[1,5-a]pyridine-2-carboxamide]: it took 17 nM to reach half-maximal inhibition (IC50). `CCc1c(C(=O)NC2(C)CS(=O)(=O)C2)nn2ccc(Oc3ncccc3OCC(F)(F)F)cc12` [Example 47, 3-Ethyl-N-(3-methyl-1,1-dioxidothietan-3-yl)-5-((3-(2,2,2-trifluoroethoxy)pyridin-2-yl)oxy)pyrazolo[1,5-a]pyridine-2-carboxamide] had an IC50 of 257 nM.

In the case of `CC(C)c1c(C(=O)NC2(C)CCS(=O)(=O)CC2)nn2ccc(Oc3ncccc3OCC(F)(F)F)cc12` [Example 48, 3-Isopropyl-N-(4-methyl-1,1-dioxidotetrahydro-2H-thiopyran-4-yl)-5-((3-(2,2,2-trifluoroethoxy)pyridin-2-yl)oxy)pyrazolo[1,5-a]pyridine-2-carboxamide], the midpoint of inhibition, the IC50, lay at 46 nM. To `CC1(NC(=O)c2nn3ccc(Oc4ncccc4OCC(F)(F)F)cc3c2C(F)F)CCS(=O)(=O)CC1` [Example 49, 3-(Difluoromethyl)-N-(4-methyl-1,1-dioxidotetrahydro-2H-thiopyran-4-yl)-5-((3-(2,2,2-trifluoroethoxy)pyridin-2-yl)oxy)pyrazolo[1,5-a]pyridine-2-carboxamide] belongs 973 nM; to `CC1(NC(=O)c2nn3ccc(Oc4ncccc4OCC(F)(F)F)cc3c2CO)CCS(=O)(=O)CC1` [Example 50, 3-(Hydroxymethyl)-N-(4-methyl-1,1-dioxidotetrahydro-2H-thiopyran-4-yl)-5-((3-(2,2,2-trifluoroethoxy)pyridin-2-yl)oxy)pyrazolo[1,5-a]pyridine-2-carboxamide], 10 nM; to `CC1(NC(=O)c2nn3ccc(Oc4ncccc4OCC(F)(F)F)cc3c2C(F)(F)F)CCS(=O)(=O)CC1` [Example 51, N-(4-Methyl-1,1-dioxidotetrahydro-2H-thiopyran-4-yl)-5-((3-(2,2,2-trifluoroethoxy)pyridin-2-yl)oxy)-3-(trifluoromethyl)pyrazolo[1,5-a]pyridine-2-carboxamide], 828 nM. Regarding `CC1(NC(=O)c2nn3ccc(Oc4ncc(F)cc4OCC(F)(F)F)cc3c2C2CC2)CCS(=O)(=O)CC1` [Example 54, 3-cyclopropyl-5-((5-fluoro-3-(2,2,2-trifluoroethoxy)pyridin-2-yl)oxy)-N-(4-methyl-1,1-dioxidotetrahydro-2H-thiopyran-4-yl)pyrazolo[1,5-a]pyridine-2-carboxamide], the IC50 was 48 nM. The compound `CC1(NC(=O)c2nn3ccc(Oc4ncc(F)cc4OCC(F)(F)F)cc3c2N)CCS(=O)(=O)CC1` [Example 55, 3-Amino-5-((5-fluoro-3-(2,2,2-trifluoroethoxy)pyridin-2-yl)oxy)-N-(4-methyl-1,1-dioxidotetrahydro-2H-thiopyran-4-yl)pyrazolo[1,5-a]pyridine-2-carboxamide] showed an IC50 of 16 nM. To `CC1(NC(=O)c2cc3c(F)c(Oc4ncc(F)cc4OCC(F)(F)F)ccn3n2)CCS(=O)(=O)CC1` [Example 56, 4-Fluoro-5-((5-fluoro-3-(2,2,2-trifluoroethoxy)pyridin-2-yl)oxy)-N-(4-methyl-1,1-dioxidotetrahydro-2H-thiopyran-4-yl)pyrazolo[1,5-a]pyridine-2-carboxamide] belongs 20 nM; to `Cc1c(Oc2ncc(F)cc2OCC(F)(F)F)ccn2nc(C(=O)NC3(C)CCS(=O)(=O)CC3)cc12` [Example 58, 5-((5-Fluoro-3-(2,2,2-trifluoroethoxy)pyridin-2-yl)oxy)-4-methyl-N-(4-methyl-1,1-dioxidotetrahydro-2H-thiopyran-4-yl)pyrazolo[1,5-a]pyridine-2-carboxamide], 6.6 nM.

Usually IC50 stands for the concentration needed to halve the response being measured. Higher therefore signals weaker potency.

Values taken from patent US20260193249A1, “PREPARATION OF PYRAZOLOPYRIDINE AND TRIAZOLOPYRIDINE DERIVATIVES AS NOVEL DIACYLGLYCERIDE O-ACYLTRANSFERASE 2 INHIBITORS” (Merck Sharp & Dohme LLC, priority 2022, published 2026).
